Assay results from patent US20060154990A1, “Use of MEK inhibitors in treating abnormal cell growth” (AGOURON PHARMACEUTICALS, INC., priority 2004, published 2006).
Several values for one entry are separate records, joined by “and”; a condition that tells them apart may be missing. Identical values can stand only once. Like-named read-outs stand apart in the source and are kept apart here.

How the values were obtained:
[1] = Pilot food effect assessment of plasma pharmacokinetics; conditions: for AUC(0-24) Change % / Cmax Change %: fed versus fasted; for Cmax / Tmax / AUC(0-t): human, plasma, oral
pERK in MiaPaCa2 tumors = assay: Tumor pERK inhibition and PK-PD in MiaPaCa2 xenograft; parameters: species or system mice; conditions: Mus musculus, MIA PaCa-2, 24 h, 25 mg/kg oral, read-out: Ex vivo % pERK inhibition at 24 h
[2] = system: ZR-75-1 (human tumor of unknown phenotype); assay: Antitumor activity in ZR-75-1 tumor model; assay type: in vivo, mice; conditions: ZR-75-1 (unknown phenotype), oral 25 mg/kg once a day for 14 days
panel of 27 kinases = assay: Specificity against a panel of 27 kinases; conditions: 10 μM
[3] = Metabolites of [14C] Compound 1 in cryopreserved hepatocytes; assay type: in vitro ADME, monkey; conditions: [C-14] Compound 1 10 μM, 180 mins
Protocol: (§1) Incubations were performed in hepatocytes for 3 hours and liver microsomes for 1.5 hours and were stopped with the addition of methanol. HPLC, in conjuction with ionspray 3D iontrap mass spectrometry, and simultaneous radioactive monitoring were used to detect and identify the resulting metabolites.
(§2) Metabolite identification of radiolabeled Compound 1 was performed after incubation with rat, dog, monkey and human cryopreserved hepatocytes and liver microsomes. […] Besides glucuronidation, metabolites derived from other clearance pathways are also observed. For instance, M 15 (acid cleavage product) accounts for 11% of the total radioactivity in the human chromatogram.

[4] = as above; assay type: in vitro ADME, human; conditions: [C-14] Compound 1 10 μM, 180 mins
Protocol: as §1, §2

[5] = system: ERK phosphorylation in HCT-116 colon cells; assay: cells; conditions: Homo sapiens, HCT-116, 1 h, read-out: Cellular IC50
[6] = system: ERK phosphorylation in tumor cells; assay: ERK phosphorylation in tumor cells grown in culture with 10% serum; assay type: cell-based; conditions: read-out: IC50, reducing ERK phosphorylation
[7] = system: ERK phosphorylation in colon 26 cells; assay: cells; conditions: Mus musculus
Ki67 in tumor biopsies = assay: Immunohistochemical analysis of Ki67 in paired tumor biopsies; assay type: in vivo, human
Protocol: The same biopsy specimens, as analyzed for pERK. staining described in Example 10, were also assessed for the amount of Ki67 detectable by immunohistochemistry. The Ki67 marker is considered an indicator of cell proliferation and thus reduction in Ki67 staining levels may be correlated with anti-tumor activity of therapeutic agents. Tissue sections from the paraffin-embedded biopsy tissues were pretreated with Heat-induced Epitope Retrieval (in this case, microwaving for 3 minutes) prior to the Ki67 detection procedure. The antibody used was the mouse monoclonal Ki67/MM1 manufactured by Novocastra Laboratories, Ltd. (catalog number: NCL-Ki67-MM1). […] Scoring of staining intensity was performed in same manner as for pERK assay, with H-scores generated for each section. For Ki67, only 1 section was assayed for each biopsy specimen.

[8] = Metabolites of [14C] Compound 1 in cryopreserved hepatocytes; assay type: in vitro ADME, rat; conditions: [C-14] Compound 1 10 μM, 180 mins
Protocol: as §1, §2

[9] = Metabolites of [14C] Compound 1 in liver microsomes; assay type: in vitro ADME, monkey; conditions: [C-14] Compound 1 10 μM, 90 mins
Protocol: as §1
This acid cleavage product is further metabolized to form hydroxylated (M 11, 16% in rat) and hydroxylated, defluorinated products (M 17, 19% in rat).

[10] = Plasma concentrations associated with antitumor efficacy in mice; assay type: in vivo; conditions: mouse, oral, C26 and ZR-75-1 tumor models in mice
pERK in BxPC-3 tumors = assay: Tumor pERK inhibition and PK-PD in BxPC-3 xenograft; assay type: in vivo, mice; conditions: BxPC-3 tumor, 25 mg/kg oral

For `O=C(NOC[C@H](O)CO)c1ccc(F)c(F)c1Nc1ccc(I)cc1F` [Compound 1, N-[(R)-2,3-dihydroxy-propoxy]-3,4-difluoro-2-(2-fluoro-4-iodo-phenylamino)-benzamide], the “AUC(0-24) Change %” value ([1]; 1 mg BID, individual patients) was −76% and 390%, the “Cmax Change %” value ([1]; 1 mg BID, individual patients) was −82% and 161% and the “AUC(0-24) Fasted” value ([1]; 1 mg BID, individual patients) was 998 ng·h/mL and 133 ng·h/mL. The “AUC(0-24) Fed” value ([1]; 1 mg BID, individual patients) was 244 ng·h/mL and 652 ng·h/mL, the “Cmax Fasted” value ([1]; 1 mg BID, individual patients) was 181 ng/mL and 21.6 ng/mL and the “Cmax Fed” value ([1]; 1 mg BID, individual patients) was 56.4 ng/mL. The “AUC(0-24) Change %” value ([1]; 2 mg BID, individual patients) was −38% and 138% and 74% and 1%, the “Cmax Change %” value ([1]; 2 mg BID, individual patients) was −62% and −29% and −28% and −36% and the “AUC(0-24) Fasted” value ([1]; 2 mg BID, individual patients) was 874 ng·h/mL and 526 ng·h/mL and 454 ng·h/mL. The “AUC(0-24) Fed” value ([1]; 2 mg BID, individual patients) was 369 ng·h/mL and 2080 ng·h/mL and 914 ng·h/mL and 456 ng·h/mL, the “Cmax Fasted” value ([1]; 2 mg BID, individual patients) was 77.5 ng/mL and 173 ng/mL and 71.9 ng/mL and 88.7 ng/mL and the “Cmax Fed” value ([1]; 2 mg BID, individual patients) was 29.5 ng/mL and 122 ng/mL and 52.1 ng/mL and 56.7 ng/mL. The “Tmax Fed” value ([1]; 2 mg BID, individual patients) was 8 h, the “AUC(0-24) Change %” value ([1]; 4 mg BID, individual patients) was −7% and −20% and −18% (2×) and the “Cmax Change %” value ([1]; 4 mg BID, individual patients) was −25% and −49% (2×) and −57%. The “AUC(0-24) Fasted” value ([1]; 4 mg BID, individual patients) was 1060 ng·h/mL and 721 ng·h/mL and 919 ng·h/mL, the “AUC(0-24) Fed” value ([1]; 4 mg BID, individual patients) was 849 ng·h/mL and 590 ng·h/mL and 754 ng·h/mL and the “Cmax Fasted” value ([1]; 4 mg BID, individual patients) was 65.5 ng/mL and 157 ng/mL and 114 ng/mL. For the same compound, the “Cmax Fed” value ([1]; 4 mg BID, individual patients) was 80.7 ng/mL and 58.4 ng/mL and 68.0 ng/mL, the “Tmax Fasted” value ([1]; 4 mg BID, individual patients) was 1 h and the “AUC(0-24) Change %” value ([1]; 15 mg BID, individual patients) was −14% and −67% and −27%. For the same compound, the “Cmax Change %” value ([1]; 15 mg BID, individual patients) was −59% and −80% and −50%, the “AUC(0-24) Fasted” value ([1]; 15 mg BID, individual patients) was 2880 ng·h/mL and 4880 ng·h/mL and the “AUC(0-24) Fed” value ([1]; 15 mg BID, individual patients) was 4700 ng·h/mL and 957 ng·h/mL and 3580 ng·h/mL. The “Cmax Fasted” value ([1]; 15 mg BID, individual patients) was 1120 ng/mL and 464 ng/mL and 641 ng/mL, the “Cmax Fed” value ([1]; 15 mg BID, individual patients) was 459 ng/mL and 92.0 ng/mL and 319 ng/mL and the “AUC(0-24) Change %” value ([1]; 20 mg BID, individual patients) was −6% and −2% and −15%. For the same compound, the “Cmax Change %” value ([1]; 20 mg BID, individual patients) was −57% and −32% and −34%, the “AUC(0-24) Fasted” value ([1]; 20 mg BID, individual patients) was 4340 ng·h/mL and 6820 ng·h/mL and 3360 ng·h/mL and the “AUC(0-24) Fed” value ([1]; 20 mg BID, individual patients) was 4060 ng·h/mL and 6700 ng·h/mL and 2860 ng·h/mL. For the same compound, the “Cmax Fasted” value ([1]; 20 mg BID, individual patients) was 1180 ng/mL and 596 ng/mL, the “Cmax Fed” value ([1]; 20 mg BID, individual patients) was 358 ng/mL and 797 ng/mL and 393 ng/mL and the “coefficient of variation (CV) for AUC(0-24)” value ([1]; fed state) was 78%. For the same compound, the Cmax ([1]; 1 mg, Cmax Fed, 1 mg BID, individual patients) was 33.4 ng/mL, the Tmax ([1]; 1 mg, Tmax Fasted, 1 mg BID, individual patients) was 1 h and the Tmax ([1]; 1 mg, Tmax Fed, 1 mg BID, individual patients) was 3 h. It also gave an AUC(0-t) ([1]; 2 mg, AUC(0-24) Fasted, 2 mg BID, individual patients) of 594 ng·h/mL, a Tmax ([1]; 2 mg, Tmax Fasted, 2 mg BID, individual patients) of 1 h and a Tmax ([1]; 2 mg, Tmax Fed, 2 mg BID, individual patients) of 6 h. For the same compound, the AUC(0-t) ([1]; 4 mg, AUC(0-24) Fasted, 4 mg BID, individual patients) was 705 ng·h/mL, the AUC(0-t) ([1]; 4 mg, AUC(0-24) Fed, 4 mg BID, individual patients) was 654 ng·h/mL and the Cmax ([1]; 4 mg, Cmax Fed, 4 mg BID, individual patients) was 49.1 ng/mL. For the same compound, the Tmax ([1]; 4 mg, Tmax Fed, 4 mg BID, individual patients) was 6 h, the AUC(0-t) ([1]; 15 mg, AUC(0-24) Fasted, 15 mg BID, individual patients) was 5460 ng·h/mL and the Tmax ([1]; 15 mg, Tmax Fasted, 15 mg BID, individual patients) was 1 h. It also gave a Tmax ([1]; 15 mg, Tmax Fed, 15 mg BID, individual patients) of 4 h, a Cmax ([1]; 20 mg, Cmax Fasted, 20 mg BID, individual patients) of 839 ng/mL and a Tmax ([1]; 20 mg, Tmax Fasted, 20 mg BID, individual patients) of 1 h. For the same compound, the Tmax ([1]; 20 mg, Tmax Fed, 20 mg BID, individual patients) was 4 h, the “delay of peak plasma levels” value ([1]; taken with a high fat meal) was 2 to 7 h and the inhibition at 25 mg/kg (pERK in MiaPaCa2 tumors) was 93%. For the same compound, the “CR (complete responder)” value [2] was 7/8, the “PR (partial responder)” value [2] was 1/8 and the “T − C” value [2] was 24.2 days. The “Tumor Free” value [2] was 0/8, the “inhibition of panel of 27 kinases” value (panel of 27 kinases) was “completely refractory to inhibition” and the “% ROI Monkey” value [3] was 23.46%. For the same compound, the “% ROI Human” value [4] was 15.68%, the IC50 [5] was 0.28 nM and the IC50 [6] was 0.59 nM. For the same compound, the IC50 ([7]; Colon 26, 1 h, read-out: Cellular IC50) was 0.34 nM, the IC50 ([7]; Colon 26, read-out: IC50, phosphorylation of MAP kinase) was 0.33 nM and the “average Ki67 decline” value (Ki67 in tumor biopsies; baseline Ki67 scores above 20, 2 mg BID to 30 mg BID (N=13)) was 49%. For the same compound, the “average Ki67 decline” value (Ki67 in tumor biopsies; baseline Ki67 scores above 20, all dose groups (N=18)) was 39%, the “average Ki67 decline” value (Ki67 in tumor biopsies; tumor biopsies Day 15, 1 mg QD to 30 mg BID (N=22)) was 31% and the “average Ki67 decline” value (Ki67 in tumor biopsies; tumor biopsies Day 15, 2 mg BID to 30 mg BID (N=19)) was 46%. The “% ROI Rat” value [8] was 72.06%, the “% ROI Monkey” value [9] was 71.38% and the AUC(0-t) ([10]; read-out: lowest plasma AUC(0-24) associated with meaningful in vivo antitumor efficacy) was 1180 to 1880 ng·h/mL. The Cmax ([10]; read-out: lowest plasma Cmax associated with meaningful in vivo antitumor efficacy) was 260 to 428 ng/mL and the “inhibition of pERK expression 24 hours after dosing” value (pERK in BxPC-3 tumors) was 23%.
